Patent US20100022531A1, “NOVEL COMPOUNDS AS P2X7 MODULATORS AND USES THEREOF” (RENOVIS, INC., priority 2005, published 2010)
Read-outs that look alike come from different tables or passages of the source.

Target: T1, P2X7 receptor (Homo sapiens, UniProt Q99572)
T1 construct: host or cells: THP-1 cells differentiated with LPS and IFN-γ
T1 sequence (Q99572 1-595): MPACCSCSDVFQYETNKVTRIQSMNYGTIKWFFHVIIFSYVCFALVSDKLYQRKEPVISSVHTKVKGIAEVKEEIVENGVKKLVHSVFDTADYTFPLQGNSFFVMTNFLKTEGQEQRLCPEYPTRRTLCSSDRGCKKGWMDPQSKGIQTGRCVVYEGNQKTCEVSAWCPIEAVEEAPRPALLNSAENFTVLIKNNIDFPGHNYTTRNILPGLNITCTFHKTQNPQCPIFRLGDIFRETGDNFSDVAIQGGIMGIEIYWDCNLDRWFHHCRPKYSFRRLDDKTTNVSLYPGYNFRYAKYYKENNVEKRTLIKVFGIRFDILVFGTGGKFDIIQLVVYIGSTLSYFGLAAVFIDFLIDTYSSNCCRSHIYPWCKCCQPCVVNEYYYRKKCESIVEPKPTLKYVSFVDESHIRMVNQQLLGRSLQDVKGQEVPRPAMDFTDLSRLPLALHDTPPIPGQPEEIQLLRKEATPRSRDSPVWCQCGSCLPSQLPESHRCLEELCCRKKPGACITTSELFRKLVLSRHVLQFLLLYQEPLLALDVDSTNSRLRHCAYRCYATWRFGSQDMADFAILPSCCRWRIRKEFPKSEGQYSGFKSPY
Test: Alternate method for IL-1β release assay (differentiated THP-1 cells, BzATP-stimulated, ELISA)
Assay type: cell-based
Details: P2X7; for inhibition at 0.3 µM: read-out: IL-1β % inhib @ 0.3 μM; for inhibition at 0.1 µM: read-out: IL-1β % inhib @ 0.1 μM
How it was run: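 After 16 h differentiation with 100 ng/mL LPS and 100 ng/mL IFN-γ plus a further 2 h LPS priming, THP-1 cells were pretreated 30 min with compound, then stimulated with 250 uM BzATP (final) for 45 min. Supernatant IL-1β measured by ELISA; percent inhibition from background-adjusted levels versus untreated cells.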

[1] = 0.3 μM compound (asterisk symbols)
[2] = 0.3 μM compound (symbols * to ****)
[3] = 0.1 μM compound (symbols + to ++++)

| inhibition at 0.3 µM [1] [%] | also measured | SMILES |
| --- | --- | --- |
| 50 to 75 |  | O=C(Cc1ccccc1)N1CCc2c(ncnc2NCC23CC4CC(CC(C4)C2)C3)C1 [Compound 81] |
| 0 to 25 |  | O=S(=O)(Cc1ccc(C(F)(F)F)cc1)N1CCc2c(ncnc2NCC23CC4CC(CC(C4)C2)C3)C1 [Compound 39] |
| > 75 |  | O=C(c1cccnc1Oc1ccccc1)N1CCc2c(ncnc2NCC23CC4CC(CC(C4)C2)C3)C1 [Compound 129] |
| 0 to 25 |  | N#Cc1ccc(S(=O)(=O)N2CCc3c(ncnc3NCC34CC5CC(CC(C5)C3)C4)C2)c(Cl)c1 [Compound 23] |
| > 75 |  | N#Cc1cccc(CN2CCc3c(ncnc3NCC34CC5CC(CC(C5)C3)C4)C2)c1 [Compound 182] |
| 0 to 25 |  | COc1ccc(CN2CCc3c(ncnc3NCC34CC5CC(CC(C5)C3)C4)C2)cc1 [Compound 173] |
|  | inhibition at 0.3 µM [2]: > 75% | Clc1ccc(CN2CCc3c(ncnc3NCC34CC5CC(CC(C5)C3)C4)C2)cn1 [Compound 245] |
| 0 to 25 |  | CC(=O)N1CCC(C(=O)N2CCc3c(ncnc3NCC34CC5CC(CC(C5)C3)C4)C2)CC1 [Compound 148] |
|  | inhibition at 0.3 µM [2]: 25 to 50% | CN(CC(=O)N1CCc2c(ncnc2NCC2C3CC4CC(C3)CC2C4)C1)Cc1cccnc1 (stereo not drawn) [Compound 320] |
| 25 to 50 |  | O=S(=O)(c1ccc(OC(F)F)cc1)N1CCc2c(ncnc2NCC23CC4CC(CC(C4)C2)C3)C1 [Compound 46] |
|  | inhibition at 0.3 µM [2]: 0 to 25% | CN(CC(=O)N1CCc2c(ncnc2NCC2C3CC4CC(C3)CC2C4)C1)Cc1ccc(F)cc1 (stereo not drawn) [Compound 312] |
| 25 to 50 |  | N#Cc1ccccc1S(=O)(=O)N1CCc2c(ncnc2NCC23CC4CC(CC(C4)C2)C3)C1 [Compound 74] |
|  | inhibition at 0.3 µM [2]: 0 to 25% | FC1(F)Oc2ccc(CN3CCc4c(ncnc4NCC45CC6CC(CC(C6)C4)C5)C3)cc2O1 [Compound 238] |
| 0 to 25 |  | O=S(=O)(c1ccc(F)cc1Cl)N1CCc2c(ncnc2NCC23CC4CC(CC(C4)C2)C3)C1 [Compound 68] |
| > 75 |  | O=C(c1c(F)cccc1Cl)N1CCc2c(ncnc2NCC23CC4CC(CC(C4)C2)C3)C1 [Compound 127] |
|  | inhibition at 0.3 µM [2]: 50 to 75% | CCN(CC(=O)N1CCc2c(ncnc2NCC2C3CC4CC(C3)CC2C4)C1)Cc1ccncc1 (stereo not drawn) [Compound 268] |
|  | inhibition at 0.1 µM [3]: 25 to 50% | O=C(c1cccnc1)N1CCc2c(ncnc2NCC23CC4CC(CC(O)(C4)C2)C3)C1 [Compound 350, {4-[(3-Hydroxy-adamantan-1-ylmethyl)-amino]-5,8-dihydro-6H-pyrido[3,4-d]pyrimidin-7-yl}-pyridin-3-yl-methanone] |
|  | inhibition at 0.3 µM [2]: 0 to 25% | COc1ccc(CN2CCc3c(ncnc3NCC34CC5CC(CC(C5)C3)C4)C2)cc1O [Compound 204] |
| 0 to 25 |  | O=S(=O)(c1cccc(Oc2ccc(Cl)c(Cl)c2)c1)N1CCc2c(ncnc2NCC23CC4CC(CC(C4)C2)C3)C1 [Compound 34] |

| inhibition at 0.3 µM [1] [%] | also measured | SMILES |
| --- | --- | --- |
|  | inhibition at 0.1 µM [3]: > 75% | FC12CC3CC(C1)CC(CNc1ncnc4c1CCN(Cc1ccccc1)C4)(C3)C2 [Compound 252] |
| > 75 |  | Cc1cc(C(=O)N2CCc3c(ncnc3NCC34CC5CC(CC(C5)C3)C4)C2)c(C)o1 [Compound 146] |
| > 75 |  | O=S(=O)(c1ccc(Oc2ccccn2)cc1)N1CCc2c(ncnc2NCC23CC4CC(CC(C4)C2)C3)C1 [Compound 29] |
| > 75 |  | COc1ccc(C(=O)N2CCc3c(ncnc3NCC34CC5CC(CC(C5)C3)C4)C2)cc1F [Compound 158] |
|  | inhibition at 0.1 µM [3]: 0 to 25% | O=C(C1CCOC1)N1CCc2c(ncnc2NCC23CC4CC(CC(C4)C2)C3)C1 (stereo not drawn) [Compound 249, {4-[(Adamantan-1-ylmethyl)-amino]-5,8-dihydro-6H-pyrido[3,4-d]pyrimidin-7-yl}-(tetrahydro-furan-3-yl)-methanone] |
| 0 to 25 |  | O=C(c1cc(C(F)(F)F)ccc1Cl)N1CCc2c(ncnc2NCC23CC4CC(CC(C4)C2)C3)C1 [Compound 126] |
| 25 to 50 |  | COc1ccc(S(=O)(=O)N2CCc3c(ncnc3NCC34CC5CC(CC(C5)C3)C4)C2)cc1OC [Compound 12] |
|  | inhibition at 0.3 µM [2]: 0 to 25% | Fc1ccc(Br)cc1CN1CCc2c(ncnc2NCC23CC4CC(CC(C4)C2)C3)C1 [Compound 229] |
| > 75 |  | O=C(c1ccc(F)c(F)c1)N1CCc2c(ncnc2NCC23CC4CC(CC(C4)C2)C3)C1 [Compound 88] |
|  | inhibition at 0.3 µM [2]: > 75% | c1cc(CN2CCc3c(ncnc3NCC34CC5CC(CC(C5)C3)C4)C2)ccn1 [Compound 221] |
|  | inhibition at 0.3 µM [2]: > 75% | FC(F)(F)Oc1cccc(CN2CCc3c(ncnc3NCC34CC5CC(CC(C5)C3)C4)C2)c1 [Compound 243] |
|  | inhibition at 0.1 µM [3]: > 75% | O=C(OCc1ccc(F)cc1F)N1CCc2c(ncnc2NCC23CC4CC(CC(C4)C2)C3)C1 [Compound 325] |
|  | inhibition at 0.1 µM [3]: > 75% | CC(C)[C@H](NC(=O)OC(C)(C)C)C(=O)N1CCc2c(ncnc2NCC23CC4CC(CC(C4)C2)C3)C1 [Compound 351] |
| 50 to 75 |  | c1ccc(Oc2ccc(CN3CCc4c(ncnc4NCC45CC6CC(CC(C6)C4)C5)C3)cc2)cc1 [Compound 187] |
|  | inhibition at 0.1 µM [3]: 50 to 75% | Cc1cc(COC(=O)N2CCc3c(ncnc3NCC34CC5CC(CC(C5)C3)C4)C2)nn1C [Compound 347] |
| 25 to 50 |  | O=S(=O)(c1cccc(OC(F)(F)F)c1)N1CCc2c(ncnc2NCC23CC4CC(CC(C4)C2)C3)C1 [Compound 20] |
| > 75 |  | CC(C)(C)c1ccc(C(=O)N2CCc3c(ncnc3NCC34CC5CC(CC(C5)C3)C4)C2)cc1 [Compound 152] |
|  | inhibition at 0.3 µM [2]: > 75% | Fc1cc(CN2CCc3c(ncnc3NCC34CC5CC(CC(C5)C3)C4)C2)ccc1Cl [Compound 222] |
|  | inhibition at 0.3 µM [2]: 0 to 25% | CC(C)N1CCN(CC(=O)N2CCc3c(ncnc3NCC3C4CC5CC(C4)CC3C5)C2)CC1 (stereo not drawn) [Compound 285] |

| inhibition at 0.3 µM [1] [%] | also measured | SMILES |
| --- | --- | --- |
|  | inhibition at 0.1 µM [3]: 50 to 75% | O=C(OCc1cccnc1)N1CCc2c(ncnc2NCC23CC4CC(CC(C4)C2)C3)C1 [Compound 328] |
| 25 to 50 |  | N#Cc1ccc(S(=O)(=O)N2CCc3c(ncnc3NCC34CC5CC(CC(C5)C3)C4)C2)cc1 [Compound 25] |
| 0 to 25 |  | O=S(=O)(c1ccccc1OC(F)(F)F)N1CCc2c(ncnc2NCC23CC4CC(CC(C4)C2)C3)C1 [Compound 55] |
| 25 to 50 |  | O=S(=O)(Cc1cc(Cl)cc(Cl)c1)N1CCc2c(ncnc2NCC23CC4CC(CC(C4)C2)C3)C1 [Compound 42] |
|  | inhibition at 0.1 µM [3]: 0 to 25% | Cc1cc(COC(=O)N2CCc3c(ncnc3NCC34CC5CC(CC(C5)C3)C4)C2)no1 [Compound 330] |
| 0 to 25 |  | O=C(C(c1ccccc1)c1ccccc1)N1CCc2c(ncnc2NCC23CC4CC(CC(C4)C2)C3)C1 [Compound 92] |
|  | inhibition at 0.3 µM [2]: 0 to 25% | COc1ccc(F)c(CN2CCc3c(ncnc3NCC34CC5CC(CC(C5)C3)C4)C2)c1 [Compound 239] |
|  | inhibition at 0.3 µM [2]: 0 to 25% | O=C(CN1CCC(C(F)(F)F)CC1)N1CCc2c(ncnc2NCC2C3CC4CC(C3)CC2C4)C1 (stereo not drawn) [Compound 300] |
| 50 to 75 |  | Cc1ccc(S(=O)(=O)N2CCc3c(ncnc3NCC34CC5CC(CC(C5)C3)C4)C2)cc1 [Compound 5] |
| 50 to 75 |  | CC(C)S(=O)(=O)N1CCc2c(ncnc2NCC23CC4CC(CC(C4)C2)C3)C1 [Compound 70] |
|  | inhibition at 0.3 µM [2]: 0 to 25% | O=C(CN1CCC(c2ccccc2)CC1)N1CCc2c(ncnc2NCC2C3CC4CC(C3)CC2C4)C1 (stereo not drawn) [Compound 294] |
|  | inhibition at 0.1 µM (0.1 μM compound (plus symbols)): > 75% | c1ccc(CN2CCc3c(ncnc3NCC34CC5CC(CC(C5)C3)C4)C2)cc1 [Compound 1, Adamantan-1-ylmethyl-(7-benzyl-5,6,7,8-tetrahydro-pyrido[3,4-d]pyrimidin-4-yl)-amine] |
|  | inhibition at 0.1 µM (0.1 μM compound (plus symbols)): > 75% | O=C(c1ccccc1)N1CCc2c(ncnc2NCC23CC4CC(CC(C4)C2)C3)C1 [Compound 77, {4-[(Adamantan-1-ylmethyl)-amino]-5,8-dihydro-6H-pyrido[3,4-d]pyrimidin-7-yl}-phenyl-methanone] |
| 25 to 50 |  | CCN1CCc2c(ncnc2NCC23CC4CC(CC(C4)C2)C3)C1 [Compound 190] |
|  | inhibition at 0.1 µM (0.1 μM compound (plus symbols)): 50 to 75% | O=C(c1ccccc1F)N1CCc2c(ncnc2NCC23CC4CC(CC(C4)C2)C3)C1 [Compound 135] |
| 0 to 25 |  | COc1ccc(-c2ccc(S(=O)(=O)N3CCc4c(ncnc4NCC45CC6CC(CC(C6)C4)C5)C3)cc2)cc1 [Compound 35] |
|  | inhibition at 0.3 µM [2]: 0 to 25% | FC(F)(F)c1ccc(CN2CCc3c(ncnc3NCC34CC5CC(CC(C5)C3)C4)C2)cc1 [Compound 215] |
| 25 to 50 |  | CS(=O)(=O)N1CCc2c(ncnc2NCC23CC4CC(CC(C4)C2)C3)C1 [Compound 3] |
|  | inhibition at 0.1 µM [3]: 0 to 25% | O=C(OCc1ncoc1-c1ccccc1)N1CCc2c(ncnc2NCC23CC4CC(CC(C4)C2)C3)C1 [Compound 346] |
